4 compounds from patent publication US20150210740A1, “PSEUDOURIDIMYCIN (PUM) AND ITS DERIVATIVES” (NEW-ANTI-INFECTIVES CONSORTIUM S.C.A.R.L., priority 2012, published 2015) can be followed below.

Molecules are shown by their SMILES. In brackets after ≈: the same amount, converted by molar mass. Where two headings read alike, the source gives them in different places.

Experiment [1] concerns NSO nuclear extract. Put plainly: RNAP inhibition, NSO nuclear extract. The experiment is classed as biochemical, mouse.
Experiment [2] concerns the target T1, E. coli RNAP (Escherichia coli, UniProt P0A8T7+P0A8V2).
T1 construct: an RNAP purified from either Escherichia coli (Sigma Aldrich) or Bacillus subtilis; purchased Sigma Aldrich; host or cells: Escherichia coli
Put plainly: RNAP inhibition, E. coli RNAP. The experiment is classed as biochemical. As to the method: (§1) The effect of PUM on bacterial RNAP is measured using an RNAP purified from either Escherichia coli (Sigma Aldrich) or Bacillus subtilis as described by Qi and Hulett (Qi Y, Hulett F M., Mol. Microbiol. 1998, 28(6):1187-1197). The bacterial RNAPs are used at 1.1 mg/ml, while the RNAP from bacteriophage T7 (Promega Corporation) is used at 20 U/ml. The nuclear extracts from HeLa cells (Human cervix carcinoma fibroblast; Promega Corporation) or NSO cells (non IgG secreting mouse myeloma lymphoblast; prepared as described by Dignam J D, Lebovitz R M, Roeder R G., Nucleic Acids Res. 1983, 11(5):1475-89) are used at 18 mg/ml. The reaction mixtures (50 μl) contain 40 mM Tris-HCl (pH 7.9), 6 mM MgCl2, 2 mM spermidine, 10 mM NaCl, 10 mM DTT, 10 μg/ml bovine serum albumin, 100 μM ATP, CTP and GTP, 2 μM UTP, 0.5 μCi [α-^32P]UTP, PUM at the desired concentration, RNAP and template DNA. The templates used for the transcription are the plasmid pGEM3Z (20 nM; Promega Corporation) for the bacterial and phagic RNAPs, and DNA derived from calf thymus (20 μg/ml; Sigma Aldrich) for the eukaryotic polymerases. After 30 min. (bacterial and phagic RNAPs) or 60 min. at 37° C., the amount of radioactivity obtained after precipitation with trichloroacetic acid is measured as previously described (Mariani R, Granata G, Maffioli S I, Serina S, Brunati C, Sosio M, Marazzi A, Vannini A, Patel D, White R, Ciabatti R. Bioorg Med Chem Lett. 2005, 15(16):3748-3752).

The target of experiment [3] is T2, B. subtilis RNAP (Bacillus subtilis, UniProt P37870+P37871).
T2 construct: an RNAP purified from either Escherichia coli (Sigma Aldrich) or Bacillus subtilis; made in house; host or cells: Bacillus subtilis
Put plainly: RNAP inhibition, B. subtilis RNAP. The experiment is classed as biochemical. As to the method: as §1

The test system of experiment [4] is HeLa nuclear extract. Nature of the experiment: RNAP inhibition, HeLa nuclear extract. The experiment is classed as biochemical, Human.
The target in experiment [5] is B. subtilis β(Q469R) (Bacillus subtilis, UniProt P37870+P37871, Q469R). Put plainly: RNAP inhibition, rifampicin-resistant B. subtilis RNAP. Format: biochemical.
Experiment [6] concerns Haemophilus influenzae L3296. Nature of the experiment: Growth inhibition (MIC), Haemophilus influenzae. The experiment is classed as cell-based.
Experiment [7] deals with Streptococcus pneumoniae. Put plainly: Growth inhibition (MIC), Streptococcus pneumoniae. Format: cell-based. The protocol:
[Worded in the source for another organism; used here, by the source, with some conditions changed.] (§2) The antibacterial activity is determined by evaluating the effect on the growth kinetics as described (Holowachuka S, Bal'ab M, Buddington R., 2003, J. Microbiol. Meth. 55, 441-446). Micro-organisms are grown in either Todd Hewitt medium (Streptococcus pyogenes) or cation-adjusted Mueller Hinton Broth (S. aureus, E. faecium, M catarrhalis, E. coli, P. aeruginosa, S. maltophilia) on 96-well microtiter plates. Each bacterial strain is inoculated with 5×10^4 CFU/ml and incubated at 37° C. on the Synergy 2 reader (BioTek), and the optical density is monitored at 595 nm for 48 h.

The subject of experiment [8] is Moraxella catarrhalis L3294. Nature of the experiment: Growth inhibition (MIC), Moraxella catarrhalis. Format: cell-based. As to the method:
as §2

Experiment [9] concerns the target T3, T7 RNAP (Escherichia phage T7, UniProt P00573).
T3 construct: purchased Promega Corporation
Nature of the experiment: RNAP inhibition, T7 RNAP. The experiment is classed as biochemical, bacteriophage T7. The protocol:
as §1, with “The templates used for the transcription are the plasmid pGEM3Z (20 nM; Promega Corporation) for the bacterial and phagic RNAPs, and DNA derived from calf thymus (20 μg/ml; Sigma Aldrich) for the eukaryotic polymerases. After 30 min.” left out

In experiment [10] the test system is S. pyogenes C203. Nature of the experiment: S. pyogenes peritonitis model in mice. The experiment is classed as in vivo, ICR female mice. Conditions: for ED50: Streptococcus pyogenes. As to the method:
ICR female mice (Harlan Italia) weighing 23-25 g are acclimated (23±2° C., humidity, 55±10% humidity) for one week before the experiment. The infection is induced by intraperitoneal injection of 4×10^3 CFU of S. pyogenes […] in 0.5 mL of saline containing 1% peptone. 48-72 h after infection, this inoculum leads to a mortality of at least 95% in untreated controls. Eight mice per group for each dose are treated with 0.25 mL of PUM prepared in 5% dextrose. Two different experiments were performed: in the first experiment, PUM is administered intravenously 10 min. after the infection and 6 hours later; in the second experiment, PUM is administered as a single intravenous or subcutaneous dose 10 min. after infection. The mortality of the animals is recorded daily. The ED50 (50% effective dose) and 95% confidence limits are calculated as described (Finney, D. J. 1952. The Spearman-Kärber method. P. 524-30. In D. J. Finney (ed.) Statistical method in biological assay. Charles Griffin & Company Limited, London) for surviving animals at day 7 at each dose.

The test system of experiment [11] is Streptococcus pyogenes. Nature of the experiment: Growth inhibition (MIC), Streptococcus pyogenes. The conditions noted are these: Streptococcus pyogenes L49. Format: cell-based. As to the method: as §2
In experiment [12] the test system is Neisseria meningitidis L1612. Nature of the experiment: Growth inhibition (MIC), Neisseria meningitidis. The experiment is classed as cell-based.
In experiment [13] the test system is T4, bacterial RNAP.
T4 construct: other: RNAP of both Gram-positive and
Nature of the experiment: Inhibition of bacterial RNAP. The experiment is classed as biochemical. Conditions: RNAP of both Gram-positive and Gram-negative bacteria; read-out: IC50 (concentration producing 50% inhibition of enzyme activity), bacterial RNAP.

Experiment [14] has as its system Gram-positive and Gram-negative susceptible, resistant and multi-resistant pathogenic bacteria. Put plainly: Growth inhibition of pathogenic bacteria. Format: cell-based. The conditions noted are these: human serum 30%. The protocol: as §2
The target in experiment [15] is T5, bacterial RNAP (UniProt P0A8T7+P0A8V2).
T5 construct: other: reaction mixture used as is for the bioactivity tests
Put plainly: Inhibition of bacterial RNAP. Conditions: read-out: IC50, bacterial RNAP; reaction mixture used as is for the bioactivity tests. Format: biochemical.

T2 sequence (O35011 whole entry): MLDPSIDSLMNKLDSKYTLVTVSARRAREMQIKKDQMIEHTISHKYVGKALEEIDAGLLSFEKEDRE
T2 sequence (P37871 whole entry): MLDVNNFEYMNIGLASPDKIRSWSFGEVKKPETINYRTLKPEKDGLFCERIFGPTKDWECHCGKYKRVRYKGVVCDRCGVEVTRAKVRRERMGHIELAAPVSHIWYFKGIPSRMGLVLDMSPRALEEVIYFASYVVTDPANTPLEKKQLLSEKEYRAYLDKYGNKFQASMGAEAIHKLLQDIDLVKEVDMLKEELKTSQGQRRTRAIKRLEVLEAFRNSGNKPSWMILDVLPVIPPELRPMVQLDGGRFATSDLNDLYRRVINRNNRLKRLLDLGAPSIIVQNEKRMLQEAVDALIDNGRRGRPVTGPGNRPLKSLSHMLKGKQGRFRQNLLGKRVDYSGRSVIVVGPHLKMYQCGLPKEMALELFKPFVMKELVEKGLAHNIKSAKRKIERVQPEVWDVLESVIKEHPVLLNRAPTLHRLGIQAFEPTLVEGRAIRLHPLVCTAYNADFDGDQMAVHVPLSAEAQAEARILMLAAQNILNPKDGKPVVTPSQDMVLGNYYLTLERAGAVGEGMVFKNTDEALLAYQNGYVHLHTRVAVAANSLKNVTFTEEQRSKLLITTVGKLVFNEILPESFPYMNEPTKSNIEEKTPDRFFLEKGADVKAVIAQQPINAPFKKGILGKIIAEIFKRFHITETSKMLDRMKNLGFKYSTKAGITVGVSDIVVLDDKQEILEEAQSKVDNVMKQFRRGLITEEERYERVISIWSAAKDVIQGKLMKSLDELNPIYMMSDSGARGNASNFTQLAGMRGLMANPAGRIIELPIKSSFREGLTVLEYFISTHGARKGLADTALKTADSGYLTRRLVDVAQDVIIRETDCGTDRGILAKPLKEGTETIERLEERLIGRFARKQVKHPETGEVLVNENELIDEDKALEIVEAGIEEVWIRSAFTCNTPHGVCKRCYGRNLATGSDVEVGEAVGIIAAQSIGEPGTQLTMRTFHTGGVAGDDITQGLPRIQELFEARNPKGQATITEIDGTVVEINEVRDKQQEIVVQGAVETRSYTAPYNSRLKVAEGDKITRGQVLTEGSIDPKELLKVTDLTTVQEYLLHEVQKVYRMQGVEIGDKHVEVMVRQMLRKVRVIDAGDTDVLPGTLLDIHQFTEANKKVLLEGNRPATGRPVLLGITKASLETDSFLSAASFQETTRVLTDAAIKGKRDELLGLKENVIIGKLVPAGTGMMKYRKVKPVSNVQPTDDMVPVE
T2 sequence (P20429 whole entry, further chain): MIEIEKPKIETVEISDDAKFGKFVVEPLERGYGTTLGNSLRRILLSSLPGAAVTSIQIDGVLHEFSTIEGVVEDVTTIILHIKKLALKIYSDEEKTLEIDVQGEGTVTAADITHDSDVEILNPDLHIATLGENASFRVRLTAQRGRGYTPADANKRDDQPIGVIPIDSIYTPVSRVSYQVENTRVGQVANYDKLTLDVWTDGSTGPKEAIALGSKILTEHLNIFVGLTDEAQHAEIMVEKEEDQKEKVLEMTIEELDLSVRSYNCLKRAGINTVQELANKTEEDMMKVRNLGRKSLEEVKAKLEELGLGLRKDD
T2 sequence (P37870 whole entry): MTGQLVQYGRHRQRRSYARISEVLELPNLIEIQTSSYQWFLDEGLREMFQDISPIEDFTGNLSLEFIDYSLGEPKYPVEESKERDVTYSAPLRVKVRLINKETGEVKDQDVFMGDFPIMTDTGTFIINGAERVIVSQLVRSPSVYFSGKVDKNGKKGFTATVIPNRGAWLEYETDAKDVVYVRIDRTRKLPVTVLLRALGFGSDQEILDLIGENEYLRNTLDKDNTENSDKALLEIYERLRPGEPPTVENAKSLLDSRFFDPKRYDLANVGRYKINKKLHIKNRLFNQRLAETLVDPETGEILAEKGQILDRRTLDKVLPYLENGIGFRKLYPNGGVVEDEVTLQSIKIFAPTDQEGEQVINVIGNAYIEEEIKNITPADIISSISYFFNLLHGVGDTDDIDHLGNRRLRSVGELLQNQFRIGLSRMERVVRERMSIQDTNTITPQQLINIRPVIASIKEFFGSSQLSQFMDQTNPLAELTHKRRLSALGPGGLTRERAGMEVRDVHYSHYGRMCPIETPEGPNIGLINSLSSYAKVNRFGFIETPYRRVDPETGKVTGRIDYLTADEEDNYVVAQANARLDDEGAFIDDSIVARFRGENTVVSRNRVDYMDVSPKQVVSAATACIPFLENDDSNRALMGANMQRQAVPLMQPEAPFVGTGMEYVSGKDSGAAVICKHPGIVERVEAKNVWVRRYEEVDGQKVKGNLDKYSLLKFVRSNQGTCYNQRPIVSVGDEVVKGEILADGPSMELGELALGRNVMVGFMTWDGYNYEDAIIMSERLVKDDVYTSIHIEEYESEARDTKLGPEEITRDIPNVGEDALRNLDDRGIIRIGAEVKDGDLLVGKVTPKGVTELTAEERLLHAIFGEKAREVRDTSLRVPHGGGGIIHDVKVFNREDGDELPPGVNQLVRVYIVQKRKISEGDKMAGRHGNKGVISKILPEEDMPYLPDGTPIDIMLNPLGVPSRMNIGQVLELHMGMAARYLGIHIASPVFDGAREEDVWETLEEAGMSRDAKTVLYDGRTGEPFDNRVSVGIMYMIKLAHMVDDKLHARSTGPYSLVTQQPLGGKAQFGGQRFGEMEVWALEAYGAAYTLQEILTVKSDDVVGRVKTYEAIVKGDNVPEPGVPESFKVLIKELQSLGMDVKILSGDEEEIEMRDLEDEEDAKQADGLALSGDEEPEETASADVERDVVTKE
B. subtilis β(Q469R), sequence (P20429 whole entry): as the sequence (P20429 whole entry, further chain) above
B. subtilis β(Q469R), sequence (P37870 whole entry Q469R): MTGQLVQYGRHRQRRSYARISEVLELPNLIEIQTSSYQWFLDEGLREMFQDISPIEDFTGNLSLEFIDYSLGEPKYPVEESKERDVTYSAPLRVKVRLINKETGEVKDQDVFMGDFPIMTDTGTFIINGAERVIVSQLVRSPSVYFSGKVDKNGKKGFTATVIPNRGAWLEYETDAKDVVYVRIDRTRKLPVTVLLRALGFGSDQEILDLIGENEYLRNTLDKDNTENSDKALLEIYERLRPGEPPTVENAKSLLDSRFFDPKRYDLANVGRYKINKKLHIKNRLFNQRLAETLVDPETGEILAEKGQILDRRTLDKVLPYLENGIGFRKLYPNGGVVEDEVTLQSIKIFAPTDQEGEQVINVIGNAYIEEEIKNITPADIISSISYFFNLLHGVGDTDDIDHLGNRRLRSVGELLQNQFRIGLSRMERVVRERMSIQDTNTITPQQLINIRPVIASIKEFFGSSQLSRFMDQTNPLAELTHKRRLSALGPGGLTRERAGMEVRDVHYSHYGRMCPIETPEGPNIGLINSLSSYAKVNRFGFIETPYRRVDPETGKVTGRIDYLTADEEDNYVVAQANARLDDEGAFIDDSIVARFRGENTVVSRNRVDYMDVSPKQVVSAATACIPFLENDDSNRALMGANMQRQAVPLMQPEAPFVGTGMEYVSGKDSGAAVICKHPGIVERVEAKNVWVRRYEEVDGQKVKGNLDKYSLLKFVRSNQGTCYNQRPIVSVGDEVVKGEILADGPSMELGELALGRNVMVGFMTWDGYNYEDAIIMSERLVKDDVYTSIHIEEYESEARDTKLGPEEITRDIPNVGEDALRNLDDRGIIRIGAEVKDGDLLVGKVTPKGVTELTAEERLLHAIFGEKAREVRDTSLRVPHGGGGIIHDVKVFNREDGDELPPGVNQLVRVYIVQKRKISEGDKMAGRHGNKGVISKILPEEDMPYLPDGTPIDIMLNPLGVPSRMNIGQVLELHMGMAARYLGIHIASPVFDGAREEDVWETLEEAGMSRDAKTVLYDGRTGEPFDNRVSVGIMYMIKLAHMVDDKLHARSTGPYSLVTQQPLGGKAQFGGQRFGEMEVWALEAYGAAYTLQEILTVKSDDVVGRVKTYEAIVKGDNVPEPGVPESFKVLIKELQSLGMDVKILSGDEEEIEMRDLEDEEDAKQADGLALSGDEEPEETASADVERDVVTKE
B. subtilis β(Q469R), sequence (P37871 whole entry): as the sequence (P37871 whole entry) above
B. subtilis β(Q469R), sequence (O35011 whole entry, further chain): as the sequence (O35011 whole entry) above
T3 sequence (P00573 whole entry): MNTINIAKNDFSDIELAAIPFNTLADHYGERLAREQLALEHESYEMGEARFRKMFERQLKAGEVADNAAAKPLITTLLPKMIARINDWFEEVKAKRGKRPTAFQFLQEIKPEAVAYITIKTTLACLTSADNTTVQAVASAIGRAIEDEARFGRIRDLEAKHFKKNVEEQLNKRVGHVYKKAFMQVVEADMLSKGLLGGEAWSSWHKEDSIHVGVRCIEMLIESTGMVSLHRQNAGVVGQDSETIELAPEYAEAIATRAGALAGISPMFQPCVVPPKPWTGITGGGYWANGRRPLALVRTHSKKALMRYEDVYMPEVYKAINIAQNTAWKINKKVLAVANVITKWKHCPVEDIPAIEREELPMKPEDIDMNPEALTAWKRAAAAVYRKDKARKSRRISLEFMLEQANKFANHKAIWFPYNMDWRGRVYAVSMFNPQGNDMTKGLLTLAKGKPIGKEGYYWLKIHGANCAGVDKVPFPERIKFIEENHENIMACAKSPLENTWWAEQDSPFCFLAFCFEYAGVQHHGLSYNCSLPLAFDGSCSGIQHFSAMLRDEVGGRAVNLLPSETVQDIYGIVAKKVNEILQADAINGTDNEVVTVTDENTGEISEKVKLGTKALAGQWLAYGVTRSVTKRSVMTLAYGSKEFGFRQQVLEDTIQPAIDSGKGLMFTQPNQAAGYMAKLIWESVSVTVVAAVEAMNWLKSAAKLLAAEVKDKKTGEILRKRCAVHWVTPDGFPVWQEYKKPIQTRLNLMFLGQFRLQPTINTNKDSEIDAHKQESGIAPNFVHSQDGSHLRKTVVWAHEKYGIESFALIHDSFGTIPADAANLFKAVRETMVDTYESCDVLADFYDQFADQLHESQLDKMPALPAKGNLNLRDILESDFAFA

`CCc1c(Cl)c(O)c(Cl)c(O)c1C(=O)O[C@H]1[C@H](O)[C@H](OC)[C@H](OC/C2=C\C=C\C[C@H](O)/C(C)=C/[C@H](CC)[C@@H](O[C@@H]3OC(C)(C)[C@@H](OC(=O)C(C)C)[C@H](O)[C@@H]3O)/C(C)=C/C(C)=C/C[C@@H]([C@@H](C)O)OC2=O)O[C@@H]1C` [Fdx, fidaxomicin, reference compound]: the IC50 is 42000 nM in experiment [1]; 5500 nM in experiment [2]; 900 nM in experiment [3]; more than 92000 nM in [4]; 700 nM in experiment [5].
As usually defined, the ED50 is the dose that gives a 50% effect, or the effect in half of the subjects. For the compound `N=C(N)NCC(=O)N(O)[C@@H](CCC(N)=O)C(=O)NC[C@H]1O[C@@H](c2c[nH]c(=O)[nH]c2=O)[C@H](O)[C@@H]1O` [PUM, Pseudouridimycin], the IC50 in experiment [1] is 205000 nM; in experiment [9], more than 205000 nM; in experiment [2] it was 300 nM; in experiment [3] it was 400 nM; in [4], more than 74000 nM; in experiment [13] it was 300 to 400 nM. Also, the IC50 in experiment [5] came to 100 nM. Also, the MIC is 0.8 µg/mL (≈ 1.64 µM) in experiment [6]; 2 µg/mL in experiment [7] (Streptococcus pneumoniae L44, human serum 30% present); 3 µg/mL in experiment [7] (Streptococcus pneumoniae L44, human serum absent); 3 µg/mL in experiment [7] (Streptococcus pneumoniae L899-Rif^R, human serum absent); 3 µg/mL in experiment [7] (Streptococcus pneumoniae L1407-Azi^R, human serum absent); 3 µg/mL in experiment [7] (Streptococcus pneumoniae L1542-Ami^REry^RCli^RGen^RTet^R, human serum absent). For the same compound, the MIC amounted to 3 µg/mL in experiment [7] (Streptococcus pneumoniae L2868-8 MDR, human serum absent); 2 µg/mL in experiment [7] (Streptococcus pneumoniae L3909-Pen^REry^RChl^RCtr^R, human serum absent); 3 µg/mL in experiment [7] (Streptococcus pneumoniae ND061311-Pen^RAzi^R, human serum absent); 0.8 µg/mL in experiment [8]; 2 µg/mL in experiment [11] (human serum 30% present); 2 µg/mL in [11] (human serum absent, read-out: MIC). In [12], the MIC was determined as 10 µg/mL (≈ 20.6 µM). The ED50 in experiment [10] (C203, iv, iv: 10 min. and 6 h post-infection, survival at day 7) stood at 10 mg/kg; in [10] (C203, iv, iv: 10 min. post-infection, survival at day 7) it was 20 mg/kg; in experiment [10] (C203, murine model of Streptococcus peritonitis, regimen not given), 10 mg/kg; in experiment [10] (C203, sc, sc: 10 min. post-infection, survival at day 7), 20 mg/kg. Besides, the “effectiveness after intravenous versus subcutaneous administration” value in [10] (murine Streptococcus peritonitis) is “comparable effectiveness”. Also, the cross-resistance with rifampicin result in experiment [5] (RNAP inhibition, Table 1) was “without showing any cross-resistance with rifampicin”. Also, the “effect of human serum on antibacterial activity” value in experiment [14] is recorded as “not affected by the presence of human serum”.
For `CO[C@H]1/C=C/O[C@@]2(C)Oc3c(C)c(O)c4c(O)c(c(/C=N/N5CCN(C)CC5)c(O)c4c3C2=O)NC(=O)/C(C)=C\C=C\[C@H](C)[C@H](O)[C@@H](C)[C@@H](O)[C@@H](C)[C@H](OC(C)=O)[C@@H]1C` [Rif, rifampicin, reference compound], the IC50 in experiment [9] was more than 121000 nM; in experiment [2] it was 60 nM; in [3] it was 50 nM; in [5], more than 121000 nM.
With `N=C(N)NCC(=O)N(O)[C@@H](CCC(=O)NCc1ccccc1)C(=O)NC[C@H]1O[C@@H](c2c[nH]c(=O)[nH]c2=O)[C@H](O)[C@@H]1O` [compound III, PUM benzylamide], in [15], the IC50 turned out to be 4000 nM.
